Numbered stars: 1 amine (or outer) side, 2 acyl side, 3 side chain; on linkers, the order of the positions; unused ones are H or OH. Bridge positions count the residues as written; N and C are the ends. Square brackets hold non-standard residues; d marks the D form. Peptide text beside a SMILES is read from it. * marks the point of attachment. Cinnamoyl(2-(1Z-pentenyl)) = CCC/C=C\c1ccccc1/C=C/C(=O)*; X3 = CC(=O)Oc1ccc(/C=C(\C(=O)[*:2])N(C)[*:1])cc1; X1 = CN(/C(=C/c1ccc(O)cc1)C(=O)[*:2])[*:1]; aThr = C[C@H](O)[C@H](N)C(=O)O; X2 = CCCCCc1ccccc1CCC(=O)*
Tests used:
[1] = biological target: T1, specific [^3H] substance P binding to guinea pig lung membranes (Cavia porcellus, UniProt P30547); test: ^3H-substance P binding to preparative membranes (guinea pig lung); settings: ^3H-Substance P 1nM, 4°C, 30 minutes, read-out: IC50 (M), displacement of specific [^3H] substance P binding
T1 construct: from tissue; host or cells: guinea pig trachea and lung, crude membrane fraction
Procedure: (a) Crude membrane preparation
Male albino Hartley strain guinea pigs (600 g) were sacrificed by decapitation. The trachea and lungs were removed, and stored at -80°C until use. These tissues (150 g) were thawed and homogenized in 500 ml buffer (0.25 M sucrose, 50 mM Tris-HCℓ pH 7.5, 0.1 mM EDTA) with a compact mixer (Matsuden MJ-761). The tissue was homogenized with a Ultra-Disperser (Yamato MODEL LK-21) at a setting of maximum range for 10-s at 10-s intervals with cooling between homogenizations (total homogenization's time : 60 seconds). The homogenate was centrifuged (900 x g for 10 min.) to remove tissue clumps and the supernatant centrifuged at 14000 x g for 20 min. to yield pellets which were referred to as crude membrane fractions. The pellets were resuspended in Medium I, homogenized with a teflon homogenizer and centrifuged at 14000 x g for 20 min. The pellets were stored at -20°C.
(b) ^3H-substance P binding to preparative membranes
^3H-Substance P (1nM, New England Nuclear) was incubated with 50 µℓ of the membrane preparation in medium I at 4°C for 30 minutes in a final volume of 250 µℓ. […] The radioactivity was counted in 3 ml of Aquazol-2 in Packard sintillation counter (Packard TRI-CARB 4530).

[2] = Solubility in solvents (physical and chemical properties); format: physicochemical
Procedure: The obtained product was triturated from diethyl ether to give triacetyl-WS-9326A (332 mg) as a colorless powder. Physical and chemical properties of the triacetyl-WS-9326A are as follows. […] (23)/(D) [formula] : -122° (C=1.0, MeOH) (6) Ultraviolet Absorption Spectrum : λ (MeOH)/(max) [formula] = 283 nm (ε=32,000) (7) Molecular Formula : C60H74N8O16 (8) Elemental Analysis : […]

T1 sequence (P30547 whole entry): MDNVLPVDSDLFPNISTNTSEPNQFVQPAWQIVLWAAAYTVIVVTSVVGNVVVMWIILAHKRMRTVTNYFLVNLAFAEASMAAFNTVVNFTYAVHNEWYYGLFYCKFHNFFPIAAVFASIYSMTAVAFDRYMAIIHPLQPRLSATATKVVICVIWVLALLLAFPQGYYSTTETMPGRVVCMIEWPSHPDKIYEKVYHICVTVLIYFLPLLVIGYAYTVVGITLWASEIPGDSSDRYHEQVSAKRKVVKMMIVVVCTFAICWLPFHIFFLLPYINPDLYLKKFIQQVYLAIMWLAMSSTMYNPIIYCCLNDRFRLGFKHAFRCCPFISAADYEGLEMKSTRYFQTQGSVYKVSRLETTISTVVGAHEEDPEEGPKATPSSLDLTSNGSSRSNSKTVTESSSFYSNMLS

| IC50 [1] [M] | Solubility ([2]; chloroform) | Solubility ([2]; diethyl ether) | Solubility ([2]; dimethyl sulfoxide) | Solubility ([2]; methanol) | Solubility ([2]; n-hexane) | SMILES |
| --- | --- | --- | --- | --- | --- | --- |
| 4.2e-07 | – | – | – | – | – | CCCCCc1ccccc1CCC(=O)N[C@@H]1C(=O)N(C)/C(=C/c2ccc(O)cc2)C(=O)N[C@@H](CC(C)C)C(=O)N[C@H](Cc2ccccc2)C(=O)N[C@@H]([C@H](C)O)C(=O)N[C@@H](CC(N)=O)C(=O)N[C@@H](CO)C(=O)O[C@@H]1C [Tetrahydro-WS-9326A] (X2-T[X1]L[dF][aThr]NS; ester 1-C) |
| – | Sparingly Soluble | Sparingly Soluble | Soluble | Soluble | Insoluble | CCC/C=C\c1ccccc1/C=C/C(=O)N[C@@H]1C(=O)N(C)/C(=C/c2ccc(OC(C)=O)cc2)C(=O)N[C@@H](CC(C)C)C(=O)N[C@H](Cc2ccccc2)C(=O)N[C@@H]([C@H](C)OC(C)=O)C(=O)N[C@@H](CC(N)=O)C(=O)N[C@@H](COC(C)=O)C(=O)O[C@@H]1C [triacetyl-WS-9326A] ({Cinnamoyl(2-(1Z-pentenyl))}-T[X3]L[dF][aThr](Ac)NS(Ac); ester 1-C) |

— EP0336230B1, “Cyclic peptide antagonists of Substance P and Substance K” (FUJISAWA PHARMACEUTICAL CO., LTD., priority 1988, dated 1989)
